Laboratory results published in US20030023104A1, “Therapeutic compound - fatty acid conjugates” (COMMONWEALTH SCIENTIFIC AND INDUSTRIAL RESEARCH ORGANISATION, priority 1995, published 2003).
Where “and” joins values, the source holds several entries; their conditions need not be identical. Identical values can stand only once. Like-named read-outs stand apart in the source and are kept apart here.

How the values were obtained:
[1] = tested on: UVB induced oedema; assay: UVB erythema assay (net skin fold thickness); format: in vivo, Skh-1 hairless albino female mice
[2] = tested on: reserpine-induced catatonia; assay: Anti-reserpine activity (reserpine-induced catatonia); details: for Response at 15 min.: individual mice 1 and 2
Experimental: The biological activities of L-DOPA and L-DOPA-GTP2 were tested in an animal model of Parkinsons' disease, a condition caused by low levels of the neurotransmitter dopamine in the brain. Mice were pretreated with reserpine which depletes dopamine and causes animals to become catatonic. The ability of L-DOPA and L-DOPA-GTP2 to reverse this condition was measured.
Mice were injected intraperitoneally (ip) with reserpine (5 mg/kg) and 4 hours later tested for catatonia. A mouse was judged to be catatonic if it was able to stay on a stopper of 4.5 cm diameter for 5 minutes. Catatonic animals were then injected ip with L-DOPA or L-DOPA-GTP2 suspended in Miglyol (200-400 μl/mouse) immediately before use and observed.

[3] = tested on: B16 melanoma cells; assay: Tumour Cytotoxicity Model (B16 melanoma in C57 mice); format: in vivo, C57 black mice; design: Mean (standard error) of B16 tumour volume adjusted for the variation in initial volume: scale not given here; details: for difference in tumour volume from the Vehicle group (95% level): 0.5 mg and 1.0 mg groups; for Mean (standard error) of B16 tumour volume adjusted for the variation in initial volume: statistically modified tumour volume; for B16 Tumour Volume: individual mice
Experimental: Groups of C57 black mice were given an initiation dose of 2×10^5 B16 melanoma cells as an intradermal injection. The cells were suspended in MEM without serum. The abdomen was clipped and 100 μl of cells + MEM was injected. […] The tumours were measured with a micrometer and photographed just prior to the injection of drug (day 8-10).
The cytotoxic drugs and their fatty acid conjugates were dissolved or suspended in 4:1 soy bean oil:ethyl oleate. A 10 mg/ml or a 20 mg/ml solution of each parent drug or the fatty acid conjugate made to the same molar concentration as the parent drug was then injected into the same region as the tumour at a dose of 0.5 mg or 1 mg. The tumours were then photographed, measured and re-injected every two to three days.

[4] = tested on: pain response on heated plate; details: for mean time response: standard error of each mean ±2.86
Experimental: The biological activities of Morphine (Mo) and fatty acid conjugates were tested in an antinociceptive assay using mice. Various doses and duration of pain-killing effect of the drugs were examined.
Quackenbush Strain mice (male, 5-week-old, approximately 30 g live weight) were used for the experiments. Animals were given free access to food and water prior to and during the experiment. Animals were divided into groups of 12 and individually weighed. The mean weight for each group was calculated. Mice were then placed on a metal block heated to 50° C. and the time taken for the animals to show signs of discomfort was measured (baseline response: control). Mice were then injected intraperitoneally (ip) with various doses of Morphine or Morphine-fatty acid conjugate. Morphine was made up in a H2O solution and Morphine-fatty acids were made up in an emulsion containing 10% glycerylmonooleate, 21% Miglyol, 6% ethanol, 24% Tween 80 (33%) and 39% H2O. 0.2 ml of appropriate solution was injected ip into each mouse. At different times after injection, responses on the heated plate were measured. In each experiment 3 doses of Morphine and Morphine-fatty acid and 2 time points were tested. A single mouse was used for each treatment and the entire experiment repeated at least 3 times. […] Members of the panel were asked to score mice behaviour according to the following key:
0=agitated mouse, distressed
1=showing mild discomfort
2=not agitated or uncomfortable but still alert
3=placid. docile; not at all worried.
Results from the panel were averaged.

[5] = DOPA moiety 364 mg/kg ip, 20 min
[6] = DOPA moiety 637 mg/kg ip, 20 min

## CCCCCCCCCCCCCCCC(=O)OCC(COC(=O)CCCCCCCCCCCCCCC)(COC(=O)CCCCCCCCCCCCCCC)NC(=O)CNC(=O)CCC(=O)OCC(=O)C1(O)CCC2C3CCC4=CC(=O)CCC4(C)C3C(O)CC21C (stereo not drawn) [HC-Suc-GTP3, Hydrocortisone-Suc-Gly-Tris-Tripalmitate]
[1]; 0.5 mg/mouse topical in ethanol, applied Day −5 (5 days prior to UV exposure), 2MED UVB, measured 24 h
  Mean Net Skin Fold Thickness: 93.8 ± 9.8 10^−2 mm
[1]; 0.5 mg/mouse topical, applied Day 0 after UV exposure, 2MED UVB
  Mean Net Skin Fold Thickness: 55.8 ± 11.7 10^−2 mm
[1]; 0.5 mg/mouse topical, applied Day −3 (3 days prior to UV exposure), 2MED UVB
  Mean Net Skin Fold Thickness: 86.7 ± 9.4 10^−2 mm
[1]; 0.5 mg/mouse, applied at Day 0, post UVB exposure
  activity equivalent to % of the hydrocortisone activity in protecting against UVB induced oedema: approximately 50%
[1]; 1 mg/mouse (1% w/v) topical, applied Day 0 after UV exposure
  Mean Net Skin Fold Thickness: 27.9 ± 7.5
[1]; 1 mg/mouse (1% w/v) topical, applied Day −3
  Mean Net Skin Fold Thickness: 62.9 ± 4.0
[1]; 1 mg/mouse (1% w/v) topical, applied Day −5
  Mean Net Skin Fold Thickness: 103.8 ± 3.0

## N[C@@H](Cc1ccc(O)c(O)c1)C(=O)O [L-DOPA, 3-(3,4-dihydroxyphenyl)-alanine, reference compound]
[2]; [5]
  Anti-Reserpine Activity (response): +
[2]; [6]
  Anti-Reserpine Activity (response): +
[2]; L-DOPA moiety 9.1 mg/kg ip
  Response at 15 min.: −
[2]; L-DOPA moiety 91 mg/kg ip
  Response at 15 min.: − and +
[2]; L-DOPA moiety 364 mg/kg ip
  Response at 15 min.: +
[2]; L-DOPA moiety 637 mg/kg ip
  Response at 15 min.: +
[2]; L-DOPA moiety 910 mg/kg ip
  Response at 15 min.: +
[2]; ip, Experiment 1
  doses at which all catatonic animals became active: ≥ 364 mg/kg
[2]; mouse, in vivo, ip
  toxic effects observed in treated catatonic mice: toxic effects of L-DOPA such as rearing, salivating and jumping

## CCCCCCCCCCCCCCCC(=O)OCC(CO)(COC(=O)CCCCCCCCCCCCCCC)NC(=O)CNC(=O)[C@@H](N)Cc1ccc(O)c(O)c1 [L-DOPA-GTP2, DOPA-Gly-Tris-Dipalmitate]
[2]; 364 mg DOPA/kg ip
  time after administration at which signs of recovery showed: 7 h
[2]; 637 mg DOPA/kg ip
  time after administration at which signs of recovery showed: 5 h
[2]; 9.1 and 91 mg DOPA/kg ip
  recovery from catatonia at low doses: did not recover
[2]; DOPA moiety 9.1 mg/kg ip, 20 min
  Anti-Reserpine Activity (response): − −
[2]; DOPA moiety 9.1 mg/kg ip, 2 hr
  Anti-Reserpine Activity (response): − −
[2]; DOPA moiety 9.1 mg/kg ip, 5 hr
  Anti-Reserpine Activity (response): − −
[2]; DOPA moiety 9.1 mg/kg ip, 6 hr
  Anti-Reserpine Activity (response): − −
[2]; DOPA moiety 9.1 mg/kg ip, 7 hr
  Anti-Reserpine Activity (response): − −
[2]; DOPA moiety 9.1 mg/kg ip, 8 hr
  Anti-Reserpine Activity (response): − −
[2]; DOPA moiety 91 mg/kg ip, 20 min
  Anti-Reserpine Activity (response): − −
[2]; DOPA moiety 91 mg/kg ip, 2 hr
  Anti-Reserpine Activity (response): − −
[2]; DOPA moiety 91 mg/kg ip, 5 hr
  Anti-Reserpine Activity (response): − −
[2]; DOPA moiety 91 mg/kg ip, 6 hr
  Anti-Reserpine Activity (response): − −
[2]; DOPA moiety 91 mg/kg ip, 7 hr
  Anti-Reserpine Activity (response): − −
[2]; DOPA moiety 91 mg/kg ip, 8 hr
  Anti-Reserpine Activity (response): − −
[2]; [5]
  Anti-Reserpine Activity (response): − −
[2]; DOPA moiety 364 mg/kg ip, 2 hr
  Anti-Reserpine Activity (response): − −
[2]; DOPA moiety 364 mg/kg ip, 5 hr
  Anti-Reserpine Activity (response): − −
[2]; DOPA moiety 364 mg/kg ip, 6 hr
  Anti-Reserpine Activity (response): − −
[2]; DOPA moiety 364 mg/kg ip, 7 hr
  Anti-Reserpine Activity (response): M —
[2]; DOPA moiety 364 mg/kg ip, 8 hr
  Anti-Reserpine Activity (response): M M
[2]; [6]
  Anti-Reserpine Activity (response): −
[2]; DOPA moiety 637 mg/kg ip, 2 hr
  Anti-Reserpine Activity (response): −
[2]; ip in Miglyol, active doses
  toxic effects observed in treated catatonic mice: did not exhibit the high activity level and toxic effects

## CCCCCCCCCCCCCCCC(=O)OCC(CO)(COC(=O)CCCCCCCCCCCCCCC)NC(=O)CNC(=O)CC[C@H](NC(=O)c1ccc(N(C)Cc2cnc3nc(N)nc(N)c3n2)cc1)C(=O)O [MTXGTP2, Methotrexate-γ-Gly-Tris-Dipalmitate]
[3]
  difference in tumour volume from the Vehicle group (95% level): significant difference
[3]; 13/11/95, 0.5 mg
  Mean (standard error) of B16 tumour volume adjusted for the variation in initial volume: 2.04 (0.565)
[3]; 13/11/95, 1.0 mg
  Mean (standard error) of B16 tumour volume adjusted for the variation in initial volume: 2.30 (0.536)
[3]; 15/11/95, 0.5 mg
  Mean (standard error) of B16 tumour volume adjusted for the variation in initial volume: 3.37 (0.884)
[3]; 15/11/95, 1.0 mg
  Mean (standard error) of B16 tumour volume adjusted for the variation in initial volume: 3.40 (0.839)
[3]; 16/11/95, 0.5 mg
  Mean (standard error) of B16 tumour volume adjusted for the variation in initial volume: 3.76 (1.06)
[3]; 16/11/95, 1.0 mg
  Mean (standard error) of B16 tumour volume adjusted for the variation in initial volume: 4.13 (1.01)
[3]; 17/11/95, 0.5 mg
  Mean (standard error) of B16 tumour volume adjusted for the variation in initial volume: 4.03 (1.28)
[3]; 17/11/95, 1.0 mg
  Mean (standard error) of B16 tumour volume adjusted for the variation in initial volume: 4.89 (1.22)
[3]; Day 1, drug dose 0.5 mg injected at tumour region
  B16 Tumour Volume: 0.5 mm^2 (2×) and 2.7 mm^2 and 16.6 mm^2
[3]; Day 1, drug dose 1.0 mg
  B16 Tumour Volume: 0.1 mm^2 and 8.2 mm^2 (2×) and 10.8 mm^2
[3]; Day 3, drug dose 0.5 mg
  B16 Tumour Volume: 0 mm^2 (3×) and 16.6 mm^2
[3]; Day 3, drug dose 1.0 mg
  B16 Tumour Volume: 0.1 mm^2 and 10.8 mm^2 and 0 mm^2 and 30.4 mm^2
[3]; Day 5, drug dose 0.5 mg
  B16 Tumour Volume: 0 mm^2 (2×) and 11.8 mm^2 and 64.5 mm^2
[3]; Day 5, drug dose 1.0 mg
  B16 Tumour Volume: 0.5 mm^2 and 21.8 mm^2 and 0 mm^2 and 142.5 mm^2
[3]; Day 6, drug dose 0.5 mg
  B16 Tumour Volume: 0 mm^2 (2×) and 19.8 mm^2 and 77.6 mm^2
[3]; Day 6, drug dose 1.0 mg
  B16 Tumour Volume: 0.5 mm^2 and 46.8 mm^2 and 0 mm^2 and 261.8 mm^2
[3]; Day 7, drug dose 0.5 mg
  B16 Tumour Volume: 0 mm^2 (2×) and 26 mm^2 and 113 mm^2
[3]; Day 7, drug dose 1.0 mg
  B16 Tumour Volume: 14 mm^2 and 50 mm^2 and 0 mm^2 and 379 mm^2

## CN(Cc1cnc2nc(N)nc(N)c2n1)c1ccc(C(=O)N[C@@H](CCC(=O)O)C(=O)O)cc1 [Methotrexate, reference compound]
[3]
  difference in tumour volume from the Vehicle group (95% level): no significant difference
[3]; 13/11/95, 0.5 mg
  Mean (standard error) of B16 tumour volume adjusted for the variation in initial volume: 3.58 (0.610)
[3]; 15/11/95, 0.5 mg
  Mean (standard error) of B16 tumour volume adjusted for the variation in initial volume: 5.47 (0.955)
[3]; 16/11/95, 0.5 mg
  Mean (standard error) of B16 tumour volume adjusted for the variation in initial volume: 6.07 (1.15)
[3]; 17/11/95, 0.5 mg
  Mean (standard error) of B16 tumour volume adjusted for the variation in initial volume: 7.24 (1.38)
[3]; Day 1, drug dose 0.5 mg injected at tumour region, listed as MTX
  B16 Tumour Volume: 0.5 mm^2 and 3.8 mm^2 and 14.1 mm^2 and 26 mm^2
[3]; Day 3, drug dose 0.5 mg, listed as MTX
  B16 Tumour Volume: 13.6 mm^2 and 4.2 mm^2 and 30.4 mm^2 and 86 mm^2
[3]; Day 5, drug dose 0.5 mg, listed as MTX
  B16 Tumour Volume: 73.5 mm^2 and 14.1 mm^2 and 86.0 mm^2 and 219.4 mm^2
[3]; Day 6, drug dose 0.5 mg, listed as MTX
  B16 Tumour Volume: 125.1 mm^2 and 14.1 mm^2 and 215.0 mm^2 and 266.5 mm^2
[3]; Day 7, drug dose 0.5 mg, listed as MTX
  B16 Tumour Volume: 190 mm^2 and 21 mm^2 and 234 mm^2 and 515 mm^2

## CCCCCCCCCCCCCCCC(=O)OCC(COC(=O)CCCCCCCCCCCCCCC)(COC(=O)CCCCCCCCCCCCCCC)NC(=O)CNC(=O)CCC(=O)Oc1ccc2c3c1O[C@H]1[C@@H](O)C=C[C@H]4[C@@H](C2)N(C)CC[C@@]341 [Mo-Suc-GTP3, Morphine-Suc-Gly-Tris Tripalmitate]
[4]; 1 mg Mo/kg ip, 4 hr
  mean time response: 23.5 s
[4]; 1 mg Mo/kg ip, 6 hr
  mean time response: 27.8 s
[4]; 10 mg Mo/kg ip, 4 hr
  mean time response: 29.8 s
[4]; 10 mg Mo/kg ip, 6 hr
  mean time response: 29.0 s
[4]; ip injection
  duration of pain-killing effect compared with morphine: longer lasting effect than morphine
